Data taken from paper PMC6804243, “Small-Molecule Inhibition of UBE2T/FANCL-Mediated Ubiquitylation in the Fanconi Anemia Pathway” (ACS Chemical Biology, 2019).
“Also recorded” adds a separate entry of the source.

Columns and labels:
[1] = tested on: FANCD2 foci and γH2AX in U2OS cells; assay: High-throughput high content indirect immunofluorescence (FANCD2 foci, γH2AX); type: cell-based; details: for γH2AX positive cells / γH2AX levels: CU1 200 μM or CU2 500 μM in combination with HU (2.5 mM, 8 h) or cisplatin (10 μM, 8 h); for H2AX positive nuclei, Experiment 1 / H2AX positive nuclei, Experiment 2 / H2AX positive nuclei, Experiment 3: CU1 200 μM, raw data; for H2AX positive nuclei, Experiment 1 / H2AX positive nuclei, Experiment 2 / H2AX positive nuclei, Experiment 3 / H2AX positive nuclei, Totals: CU2 500 μM, HU 2.5 mM 8 h, cisplatin 10 μM 8 h; for number of FANCD2 foci per cell: 8 h, CU1 200 μM or CU2 500 μM; for H2AX positive nuclei, Totals: sum of experiments 1-3, CU1 200 μM
Method: In response to DNA damage, mUb-FANCD2 accumulates at sites of DNA lesions to form foci, promote DNA-damage sensing, activate cell-cycle checkpoints, and promote DNA repair.[23] Therefore, we employed high-throughput high-content indirect immunofluorescence studies to examine the effect of CU1 and CU2 on mUb-FANCD2 focus formation. The experimental format used was similar to the immunoblot-based experiments, excepting that, following treatment with HU (2.5 mM for 8 h) or cisplatin (10 μM for 8 h), cells were fixed, permeabilized and stained with specific FANCD2 primary and fluorescent secondary antibodies. In addition to monitoring mUb-FANCD2 foci, γH2AX was evaluated as a marker of DNA damage induction, and cell nuclei were visualized by 4′,6-diamidino-2-phenylindole (DAPI) staining. […] These observations are in accord with the immunoblot-based experiments wherein reductions in mUb-FANCD2 were observed (Figure 3a).
Figure 4 Further cell-based assays with CU1 and CU2: (a, b) Representative immunofluorescence images of U2OS cells treated with HU (2.5 mM, 8 h) or cisplatin (10 μM, 8 h) in the presence or absence of CU1 (200 μM) or CU2 (500 μM). (c) Quantification of the number of FANCD2 foci in cells treated as in panels (a) and (b). Data accumulated over three independent experiments, each consisting of three technical replicas. (d) IncuCyte analysis of U2OS cells treated with or without carboplatin (15 μM) and CU2 (250 μM). Mean calculated from three wells, four images per well. (HU = DMSO + HU, cisplatin = DMSO + cisplatin). […]
buffer (1 hour at room temperature) followed by three washes with PBST. Cells were then counterstained with DAPI (25 µg/mL) and mounted using Vectashield […]
High-throughput high content indirect immunofluorescence. U2OS cells, seeded in a 96-well plate, were treated with compound for 1 hour followed by 2.5 mM HU or 10 µM cisplatin for 8 hours. Cells were washed 3 times with wash buffer (1xPBS, 0.1% Tween-20) before being fixed in 2% paraformaldehyde (w/v) for 20 minutes at 23 °C. The cells were then washed a further 3 times in wash buffer before being stored overnight at 4°C in the final wash. Next day, the cells were permeabilized using 1xPBS, 0.5% Triton X-100 for 15 minutes at 23 °C and then washed 3 times with wash buffer before blocking with 5% BSA in 1xPBS, 0.1% Tween-20 for 30 minutes at 23 °C. After washing 3 times with wash buffer, the cells were incubated for 1 hour at 23 °C in the presence of primary antibodies (1:50 FANCD2, Santa Cruz, mouse monoclonal and 1:250 γH2AX, Cell Signalling, rabbit) in 5% BSA in wash buffer. After incubation in the presence of primary antibodies, the cells were washed 3 times with wash buffer before being incubated with secondary antibodies in 5% BSA in wash buffer for 1 hour in the dark at 23 °C. The secondary antibodies used were goat anti-mouse AlexaFluor 488 and goat anti-rabbit AlexaFluor 594 (both from Molecular Probes, Invitrogen). The cells were then washed a further 3 times with wash buffer before being stained in the presence of 2 µg/ml DAPI (Sigma D9542) in wash buffer for 10 minutes in the dark at 23 °C. After DAPI staining, the cells were washed 3 more times with wash buffer and stored in the final wash until ready for imaging.
A spinning-disk Opera PhenixTM (Perkin Elmer) microscope equipped with a 40x water immersion objective was employed to acquire 10 confocal images for each well in a single optimized focal plane comprising three fluorescence channels: 405, 488 and 568 nm for DAPI, Alexa Fluor 488 and Alexa Fluor 594, respectively. Image analysis and evaluation was done using Harmony High-Content Imaging and Analysis software. DAPI staining (405 nm) was used to segment nuclei, which were further gated for the presence of γH2AX staining

[2] = tested on: U2OS cells; assay: Tolerance / cytotoxicity of compounds in U2OS cells; type: cell-based; details: compound at 500 μM, 8 h assay
Method: U2OS cells were treated with HU and the formation of mUb-FANCD2 in the presence of CU 1, CU2, and CU9 was evaluated relative to a DMSO control. Following a 1-h preincubation with the compounds, cells were treated with 2.5 mM of HU for 24 h. […] Accordingly, cells were treated with a higher concentration of compounds in further experiments.

[3] = in the presence of HU 2.5 mM, relative to HU alone
[4] = in the presence of cisplatin 10 μM, relative to cisplatin alone

Row | SMILES | γH2AX positive cells / γH2AX levels [1] | H2AX positive nuclei, Experiment 1 [1] | H2AX positive nuclei, Experiment 2 [1] | H2AX positive nuclei, Experiment 3 [1] | number of FANCD2 foci per cell [1, 3] | number of FANCD2 foci per cell [1, 4] | H2AX positive nuclei, Totals [1] | tolerance by cells [2]
1 | NCCN1C(=O)CC[C@H]2CN(Cc3cccc(-c4ccco4)c3)CC[C@H]21 [CU1] | no reduction in γH2AX positive cells; also recorded: do not significantly affect | 40 | 279 | 126 | clear reduction in the number of FANCD2 foci per cell | clear reduction in the number of FANCD2 foci per cell | 445 | –
2 | CCN1CCN(c2cc(C)nc3nc(CN4CCCCC4C)nn23)CC1 (stereo not shown) [CU2] | no reduction in γH2AX positive cells; also recorded: do not significantly affect | 56 | 303 | 79 | clear reduction in the number of FANCD2 foci per cell | clear reduction in the number of FANCD2 foci per cell | 438 | tolerated
3 | Cc1nnc(N(C)CC2CCN(CC(C)O)CC2)c(C#N)c1C (stereo not shown) [CU9] | – | – | – | – | – | – | – | tolerated
